For the data set the following is noted: 298.15 K; Liquid; Gas chromatography.

Numbers after ± are expanded uncertainties.

With `C[C@@H]1CCC[C@H](C)N1` [2,6-lupetidine, cis-], the “vapor or sublimation pressure” value came to 1.576 ± 0.33 kPa.
`c1ccc(CC2CCNCC2)cc1` [4-benzylpiperidine]: the “vapor or sublimation pressure” value is 0.0015 ± 0.0003 kPa.
Consider `CN[C@@H](C)Cc1ccccc1` [(S)-N-methyl-1-phenylpropan-2-amine], for which the “vapor or sublimation pressure” value was 0.0375 ± 0.008 kPa.
For `CCCCCCCNCCCCCCC` [N-heptyl-1-heptanamine] the value was 0.00054 ± 0.00011 kPa.
Regarding `CCCCNCCCC` [dibutylamine], the “vapor or sublimation pressure” value was determined as 0.383 ± 0.12 kPa.
For `CCCCCCCCNCCCCCCCC` [dioctylamine] the value was 5.6e-05 ± 1.2e-05 kPa.
On to `CCCCCNCCCCC` [dipentylamine], for which the “vapor or sublimation pressure” value was 0.041 ± 0.009 kPa.
Consider `C1CCNCC1` [piperidine], for which the “vapor or sublimation pressure” value is listed as 3.52 ± 0.75 kPa.

One may read the vapor or sublimation pressure as the equilibrium pressure above the liquid or solid.

Values taken from the NIST ThermoML archive (doi:10.1016/j.jct.2013.08.005).
